Here are results for 21 molecules from article PMC9381536, “Non-apoptotic cell death induction via sapogenin based supramolecular particles” (Scientific Reports, 2022).

One data set deals with A549. The experiment in a line: Cytotoxicity analysis (WST-1). Format: cell-based. To be noted: Homo sapiens, A549, 48 h. Here is the method: (§1) HCC1937 (Human breast cancer line), HeLa (Human […]), A549 (Human lung adenocarcinoma), MRC-5 (Human lung fibroblasts), MCF7 (Human breast cancer cells), A549 (human lung carcinoma) were obtained from American Type Culture Collection and maintained as exponentially growing monolayers by culturing according to the supplier’s instructions. MCF7, HeLa, MRC-5, and A549 cell lines were cultured and routinely passaged in DMEM media containing 10% FBS, while HCC1937 cell lines were propagated in RPMI 1640 containing 10% FBS.
(§2) Following the treatment with compounds or vehicle for 48 h, the 10% WST-1 (Roche, Switzerland) in medium was replaced in each 96 well. After 4 h incubation with WST-1 reagent at 37 °C and 5% CO2, the absorbance was measured using a microplate reader at 440 nm (Varioscan, Thermo Fisher Scientific, US). Graph Pad Prism 5 (San Diego, CA, US.) was used to calculate the IC50, which represents the concentration of compounds that is required for 50% inhibition in comparison to the vehicle-treated controls. The experiments were repeated three times independently.
On the technique in general: Tetrazolium assays rely on reduction of a dye to a coloured formazan, in cell work by metabolically active cells.

The next data set concerns HeLa. The experiment in a line: Cytotoxicity analysis (WST-1). Format: cell-based. To be noted: Homo sapiens, 48 h. Here is the method: as §1, §2
For the next data set, the system named is HCC1937. As to the kind of experiment: Cytotoxicity analysis (WST-1). To be noted: Homo sapiens, HCC1937, 48 h. Format: cell-based. Here is the method:
as §1, §2

Another data set concerns MCF7. As to the kind of experiment: Cytotoxicity analysis (WST-1). Format: cell-based. To be noted: Homo sapiens, MCF7, 48 h. Here is the method:
as §1, §2

Another data set concerns MRC-5. As to the kind of experiment: Cytotoxicity analysis (WST-1). The data set is classed as cell-based. To be noted: Homo sapiens, MRC5, MRC-5 normal cell line, 48 h. Here is the method:
as §1, §2

The test system of data set [1] is HeLa, HCC1937, MCF7, A549 and MRC-5. The experiment in a line: cells. The data set is classed as cell-based, Human.
Source text: We next aimed to further characterize the relation between the chemical structure of AG-08 and its capacity of supramolecular assembly formation together with its biological activities by preparing further derivatives. In this regard, 18 analogs (Fig. 4) were synthesized from 20(27)-octanor-cycloastragenol (SCG), cycloastragenol (CG), and astragenol (AG) by the methods shown in the method section. The details and characterization of which are shown in Supplementary Information. The cytotoxic activities of the semi-synthetic analogs were evaluated against four human cancer cell lines, namely HeLa, HCC1937, MCF7, and A549 as well as against MRC-5 as a normal cell line.
as §1, §2

For data set [2], the system named is HCC1937 cells. As to the kind of experiment: Endocytosis/vesicular trafficking inhibitors against AG-08-mediated cell death. The data set is classed as cell-based, Human. The conditions noted are these: 1 h pre-treatment, then 8 µM AG-08 24 h, HCC1937, WST-1. Here is the method: Figure 2 AG-08 is related with endosomal pathway. (A) After pre-treatment with 20 µM pitstop II, 0.5 mM methyl-β-cyclodextrin (MβC), 80 µM dynasore, 20 µM cytochalasin d (Cyto D) or 20 µM chlorpromazine (CPZ) for 1 h, HCC1937 cells were treated with 8 µM AG-08 for 24 h. Then cell viability was determined by using WST-1. Reported values were normalized on cells treated with only AG-08. Error bars are the standard deviations (n = 3). p-values were calculated with respect to AG-08 treated cells by two-tailed equal variance Student’s t-test (*p < 0.05, ***p < 0.001, ****p < 0.0001) (B) HCC1937 cells were treated with brefeldin A (Bref A) for 1 h and then treated with 8 µM AG-08 for 24 h. Error bars represent standard deviations (n = 3). p-values were calculated with respect to AG-08-treated cells (*p < 0.05, **p < 0.005, ***p < 0.001). (C) Following AG-08 treatment for 16 h, EEA1 proteins were stained using the anti-EEA1 antibody in HCC1937 cells (scale bar = 25 µm).
Pitstop II (Sigma; SML1169), methyl β cyclodextrin (Cayman; 21,633), chlorpromazine (Cayman; 16,129), dynasore (Cayman, 14,062) and cytochalasin D (Cayman; 11,330) were used as endocytosis inhibitors.

Data set [3] has as its system HCC1937 cells. The experiment in a line: Cytotoxicity of 220 nm filtrates. Format: cell-based. The conditions noted are these: HCC1937, 24 h. Here is the method:
Figure 1 AG-08 mediated cytotoxicity relies on the supramolecular structures. (A) Structure of AG-08. (B) The scanning transmission electron micrograph of 16 µM AG-08 in PBS. Figure is a representative image of stained sample with uranyl acetate (5683 × magnification; scale bar 600 nm). (C) After 3 h incubation of Nile red solution with AG-08 or AG, fluorescence intensity of Nile red was measured. (D) AG-08, Staurosporine (Sta) or vehicle samples prepared in the cell condition medium was filtrated by 220 nm filter and HCC1937 cells were exposed to the filtrates. After 24 h, the viability of cells was measured and represented as a percentage of that of the vehicle control. The error bars represent mean value ± s.d. (n = 3). *p < 0.05, **p < 0.005, ***p < 0.001. (E) Tween 20 (1:40,000) was added to the fresh medium before addition of 8 μM AG-08 or vehicle. Then cell medium was replaced with this fresh medium. Cell viability was detected after 24 h incubation. […] TEXT PRINTED IN THE PICTURE: (F) no label printed: Diameter: 153.2±4.6; polydispersity index: 0.218
To verify that the activity of AG-08 arises from its supramolecular structures, freshly prepared AG-08 solutions were filtered using 220 nm-filters to remove AG-08 supramolecular particles from medium, and the filtrates were analyzed for their cytotoxicity. […] Next, Tween-20 was utilized as a non-ionic detergent to block particle formation, and AG-08-mediated cell death was inhibited as expected (Fig. 1E). […]

Take `CC(C)(O)C1CCC(C)(C2C(O)CC3(C)C4CC(=O)C5C(C)(CCC(O)C5(C)C)C4=CCC23C)O1` (stereo not drawn) [AG-01]: the IC50 in the data set on A549, in the data set with HeLa, in the data set with HCC1937, in the data set on MCF7 and in the data set with MRC-5 was over 30 µM in each case.

As to `CC(C)(O)C1CCC(C)(C2C(O)CC3(C)C4CC(O)C5C(C)(C)C=CCC5(C)C4=CCC23C)O1` (stereo not drawn) [AG-02], the IC50 is 30.5 µM in the data set with A549; 42.6 µM with HeLa; 46.1 µM with HCC1937; 32.1 µM in the data set on MCF7; 39.9 µM in the data set with MRC-5. In addition, in data set [1], the “cytotoxic activity (structure-activity statement)” value (“cytotoxic activity” for short) was “did not exhibit antiproliferative effect”.

On to `CC(C)(O)C1CCC(C)(C2C(O)CC3(C)C4C=CC5C(C)(CCC(O)C5(C)C)C4=CCC23C)O1` (stereo not drawn) [AG-03], for which the IC50 with A549 is 25.5 µM; in the data set on HeLa it was 33.4 µM; in the data set on HCC1937 it was 20.3 µM; in the data set on MCF7, 21.8 µM; in the data set on MRC-5 it was 24.4 µM.

Turning to `CC(C)(O)C1CCC(C)(C2C(O)CC3(C)C4C=CC5C(C)(CCC(OS(C)(=O)=O)C5(C)C)C4=CCC23C)O1` (stereo not drawn) [AG-04], the IC50 was 27.5 µM in the data set on A549; over 50 µM in the data set on HeLa; over 50 µM in the data set with HCC1937; 22.1 µM in the data set on MCF7; 29.6 µM in the data set on MRC-5. Also, in data set [1], the “cytotoxic activity” value is given as “the activity was lost”.

With `CN(C)c1cccc2c(S(=O)(=O)OC3CCC4(C)C5=CCC6(C)C(C7(C)CCC(C(C)(C)O)O7)C(O)CC6(C)C5C=CC4C3(C)C)cccc12` (stereo not drawn) [AG-07], the IC50 in the data set with A549 was determined as 38.2 µM; in the data set with HeLa, 34.7 µM; in the data set with HCC1937, 38.3 µM; in the data set on MRC-5 it was 7.4 µM. For the same molecule, the “cytotoxic activity” value in data set [1] is “loss of activity”.

Take `C[C@H]1CCC/C=C/[C@@H]2C[C@H](O)C[C@H]2[C@H](O)/C=C/C(=O)O1` [Brefeldin A]: the “protection of cells against AG-08-mediated cell death” value (“protection of cells” for short) in the data set with HCC1937 cells [2] is “reduced AG-08 dependent cell death”.

Regarding `CC(C)(O)C1CCC(C)(C2C(O)CC3(C)C4CC(O)C5C(C)(C)C(O)CCC56CC46CCC23C)O1` (stereo not drawn) [CG, cycloastragenol, reference compound], the IC50 in the data set on A549, with HeLa, in the data set with HCC1937, in the data set on MCF7 and with MRC-5 was over 50 µM in each case.

Consider `CC(C)(O)C1CCC(C)(C2C(O)CC3(C)C4CC(=O)C5C(C)(C)C(O)CCC56CC46CCC23C)O1` (stereo not drawn) [CG-01], for which the IC50 with A549, with HeLa, in the data set with HCC1937, in the data set on MCF7 and in the data set on MRC-5 was over 30 µM each time.

For the molecule `CC(C)(O)C1CCC(C)(C2C(O)CC3(C)C4C=CC5C(C)(C)C(O)CCC56CC46CCC23C)O1` (stereo not drawn) [CG-02], the IC50 in the data set with A549 turned out to be 21.1 µM; in the data set with HeLa, 43.9 µM; with HCC1937, 32.5 µM; in the data set with MCF7, 21.2 µM; in the data set on MRC-5 it was 33.4 µM. For the same molecule, in data set [1], the “cytotoxic activity” value is “did not exhibit antiproliferative effect”.

Regarding `CC(C)(O)C1CCC(C)(C2C(O)CC3(C)C4C=CC5C(C)(C)C(OS(C)(=O)=O)CCC56CC46CCC23C)O1` (stereo not drawn) [CG-04], the IC50 in the data set on A549, in the data set with HeLa, in the data set with HCC1937, in the data set on MCF7 and in the data set on MRC-5 was over 50 µM throughout. Moreover, the “cytotoxic activity” value in data set [1] was “the activity was lost”.

`CC1(C)C(O)CCC23CC24CCC2(C)CC(O)CC2(C)C4CC(O)C13` (stereo not drawn) [SCG, 20(27)-octanor-cycloastragenol, reference compound]: the IC50 with A549, in the data set with HeLa, with HCC1937, in the data set with MCF7 and in the data set on MRC-5 was over 50 µM each time.

As to `Cc1ccc(S(=O)(=O)OC2CC3(C)CCC45CC46CCC(O)C(C)(C)C6C(O)CC5C3(C)C2)cc1` (stereo not drawn) [SCG-01], the IC50 in the data set with A549, with HeLa, in the data set with HCC1937, in the data set on MCF7 and in the data set on MRC-5 was over 50 µM in each case.

Consider `CC1(C)C(O)CCC23CC24CCC2(C)CC(O)CC2(C)C4C=CC13` (stereo not drawn) [SCG-02], for which the IC50 in the data set with A549, with HeLa, in the data set with HCC1937, in the data set on MCF7 and in the data set on MRC-5 was over 50 µM throughout.

`Cc1ccc(S(=O)(=O)OC2CC3C4(C)CC(O)CC4(C)CCC34CC43CC=CC(C)(C)C23)cc1` (stereo not drawn) [SCG-03]: the IC50 in the data set on A549, in the data set with HeLa, with HCC1937, with MCF7 and in the data set with MRC-5 was over 50 µM in each case.

Take `Cc1ccc(S(=O)(=O)OC2CC3(C)CCC45CC46CCC(OS(=O)(=O)c4ccc(C)cc4)C(C)(C)C6C=CC5C3(C)C2)cc1` (stereo not drawn) [SCG-04]: the IC50 in the data set with A549, in the data set with HeLa, with HCC1937, in the data set with MCF7 and with MRC-5 was over 50 µM in each case.

For the molecule `Cc1ccc(S(=O)(=O)OC2CC3(C)CCC45CC46CCC(O)C(C)(C)C6C=CC5C3(C)C2)cc1` (stereo not drawn) [SCG-05], the IC50 with A549, in the data set on HeLa, with HCC1937, in the data set on MCF7 and in the data set on MRC-5 was over 50 µM throughout.

For the molecule `CC1(C)C(OS(C)(=O)=O)CCC23CC24CCC2(C)CC(OS(C)(=O)=O)CC2(C)C4C=CC13` (stereo not drawn) [SCG-06], the IC50 with A549, in the data set with HeLa, with HCC1937, with MCF7 and with MRC-5 was over 50 µM in each case.

For `CC1(C)C(O)CCC23CC24CCC2(C)CC(OS(C)(=O)=O)CC2(C)C4CC(O)C13` (stereo not drawn) [SCG-07], the IC50 in the data set with A549, in the data set with HeLa, with HCC1937, in the data set with MCF7 and in the data set on MRC-5 was over 50 µM in each case.

As for `CN(C)CCCN1c2ccccc2Sc2ccc(Cl)cc21` [chlorpromazine], in the data set on HCC1937 cells [2], the “protection of cells” value was “failed to rescue cells”.

Turning to `C=C1[C@@H](C)[C@H]2[C@H](Cc3ccccc3)NC(=O)[C@]23[C@H](OC(C)=O)/C=C/[C@@](C)(O)C(=O)[C@@H](C)C/C=C/[C@H]3[C@@H]1O` [cytochalasin D], the “protection of cells” value with HCC1937 cells [2] is “failed to rescue cells”.

Regarding `CN[C@@H]1C[C@H]2O[C@@](C)([C@@H]1OC)n1c3ccccc3c3c4c(c5c6ccccc6n2c5c31)C(=O)NC4` [staurosporine, reference compound], in the data set on HCC1937 cells [3], the “cytotoxicity of filtrate after 220 nm filtration” value is recorded as “still effectively caused cell death”.

In general, IC50 refers to the concentration at which inhibition is half-maximal. A low value points to greater potency.
